Legend:
[1] = molecular target: H3 histamine receptor (Homo sapiens, UniProt Q9Y5N1); test: Intrinsic activity at H3R, LANCE Ultra cAMP assay; assay type: cell-based
Method: Intrinsic activity studies were performed using two methods, Aequoscreen and LANCE Ultra cAMP assays, according to the manufacturer of the ready-to-use cells with stable expressions of the H3 histamine receptor (Perkin Elmer).
The assay is based on the competition between the europium (Eu) chelate-labeled cAMP tracer and sample cAMP for binding sites on cAMP-specific monoclonal antibodies labeled with the ULight dye.

[2] = test system: peritoneal adipose tissue; test: Leptin, resistin, IL-6 and MCP-1 levels in adipose tissue (ELISA); assay type: in vivo, female Wistar rats; details: for leptin levels in adipose tissue: vs palatable diet + vehicle unless worded otherwise
Method: The frozen peritoneal adipose tissue was weighed, and homogenates were prepared by homogenizing 1 g of tissue in 4 mL of 0.1 M phosphate buffer, pH 7.4, using the IKA-ULTRA-TURRAX T8 homogenizer. The adipose tissue homogenates were then used for biochemical assays.
To determine the levels of leptin, resistin, IL-6, and MCP-1 in adipose tissue, the standard ELISA Kit (Cat. No E0561Ra, Cat. No E0211Ra, Cat. No E0135Ra, Cat. No E0193Ra, Bioassay Technology Laboratory, Shanghai, China) was used. To determine the levels of protein, a standard spectrophotometric test (Cat. No 1-008-B210, Biomaxima S.A. Lublin, Poland) was used.

[3] = Pharmacokinetic study, single i.p. dose, plasma LC-MS/MS; assay type: in vivo, rat; details: for Tmax / Cmax / CL/F / MRT / half-life / k el / Vd/F: ip; for Tmax / Cmax / CL/F / MRT / half-life / k el / Vz/F (volume of distribution) / Vd/F: rat plasma, single i.p. dose of 10 mg/kg; for Cmax: n = 3, non-compartmental; for CL/F: read-out: CLS/F (clearance) (converted); for MRT: read-out: MRT (mean residence time); for half-life: read-out: t0.5λz (half-life) (converted); for k el: read-out: λz (terminal elimination rate constant) (converted); for Vz/F (volume of distribution) / Vd/F: 10 mg/kg; for Vd/F: rat, plasma, read-out: Vz/F (volume of distribution); for time at which maximal plasma concentration was attained (first sampling point): single i.p. dose of 10 mg/kg b.w.
Method: Six rats divided into two experimental groups were used in pharmacokinetic experiments. Three days before the experiment, the rats’ jugular vein was cannulated allowing for multiple blood sampling from a single animal. The investigated compounds were administered i.p. at a single dose of 10 mg/kg. Blood samples (approximately 300 µL) were collected in Eppendorf tubes containing heparin at 5, 15, 30, 60, 120, 240, and 360 min after dosing. Plasma was harvested by centrifuging at 5000× g for 10 min and stored at −30 °C until bioanalysis.
Plasma concentrations of KSK-60 or KSK-74 were measured using the liquid chromatography tandem mass spectrometry (LC-MS/MS) method. The samples (50 μL) were deproteinized in a 1:3 (v/v) ratio with acetonitrile containing an internal standard (IS—pentoxifylline), briefly vortexed, and then centrifuged for 10 min at a speed of 8000× g (Eppendorf miniSpin centrifuge). The supernatant was transferred to autosampler vials and a sample volume of 10 μL was injected into the LC-MS/MS system.
Chromatographic separation was performed on the analytical column XBridge™ C18 (3 × 50 mm, 5 µm, Waters, Dublin, Ireland) using the Agilent 1100 HPLC system (Agilent Technologies, Waldbronn, Germany). The mobile phase containing 0.1% formic acid in acetonitrile and 0.1% formic acid in water was run at 0.3 mL/min in gradient mode. Mass spectrometric detection was performed on an Applied Biosystems MDS Sciex (Concord, ON, Canada) API 2000 triple quadrupole mass spectrometer. Electrospray ionization (ESI) in the positive ion mode was used for ion production. The tandem mass spectrometer was operated at unit resolution in the selected reaction monitoring mode (SRM), monitoring the transitions of the protonated molecular ions m/z 396 to 107 (CE 80 V) for KSK-60, m/z 424 to 107 (CE 80 V) for KSK-74, and m/z 279 to 181 (CE 55 V) for IS. Data acquisition and processing were performed using the Applied Biosystems Analyst version 1.6 software. The calibration curves were constructed by plotting the ratio of the peak area of the studied compound to IS versus drug concentration, and generated by weighted (1/x · x) linear regression analysis. The validated quantitation ranges were from 1 to 2000 ng/mL. The calculated accuracy and precision were within the ranges proposed by the guidelines for the validation of bioanalytical methods (FDA, EMA). No significant matrix effect was observed and there were no stability-related problems during the routine analysis of the samples.
Pharmacokinetic parameters were calculated by employing a non-compartmental approach using Monolix version 2019R1 (Antony, France: Lixoft SAS, 2019) software. The area under the mean plasma concentration versus time curve extrapolated to infinity (AUC0-inf) was estimated using the log/linear trapezoidal rule. AUMC0-inf was estimated by calculating the total area under the first-moment curve by combining the trapezoid calculation of AUMC0-t and the extrapolated area. The mean residence time (MRT) was calculated from AUMC0-inf/AUC0-inf. The terminal rate constant (λz) was calculated by log-linear regression of the drug concentration data in the terminal phase, and the terminal half-life (t1/2) was calculated as 0.693/λz. Clearance (CL/F) was estimated from the administered dose divided by AUC0-inf. The apparent volume of distribution during the terminal phase (Vz/F) was calculated from (CL/F)/λz.

[4] = KSK 10 mg/kg i.p., phentermine 7 mg/kg

H3 histamine receptor, sequence (Q9Y5N1 whole entry): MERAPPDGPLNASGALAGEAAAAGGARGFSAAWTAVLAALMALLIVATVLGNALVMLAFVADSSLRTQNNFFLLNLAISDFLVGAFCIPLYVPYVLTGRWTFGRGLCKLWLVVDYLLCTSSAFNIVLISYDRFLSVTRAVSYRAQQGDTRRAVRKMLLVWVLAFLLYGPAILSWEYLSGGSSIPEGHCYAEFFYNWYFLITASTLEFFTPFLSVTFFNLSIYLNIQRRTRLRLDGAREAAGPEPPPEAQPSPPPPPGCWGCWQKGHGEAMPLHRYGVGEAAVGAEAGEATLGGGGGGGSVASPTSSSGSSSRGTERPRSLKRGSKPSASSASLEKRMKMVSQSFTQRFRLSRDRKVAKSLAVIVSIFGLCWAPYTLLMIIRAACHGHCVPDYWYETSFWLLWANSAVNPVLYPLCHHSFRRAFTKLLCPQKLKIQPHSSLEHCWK

SMILES | IC50 [1] [nM] | leptin levels in adipose tissue [2, 4] | Tmax [3] [min] | Cmax [3] [ng/mL] | CL/F [3] [mL/min/kg] | MRT [3] [h] | half-life [3] [h] | k el [3] [s⁻¹] | Vz/F (volume of distribution) [3] [L/kg] | Vd/F [3] [L/kg] | time at which maximal plasma concentration was attained (first sampling point) [3] [min] | IL-6 levels in adipose tissue vs palatable diet + vehicle ([2]; 10 mg/kg) | MCP-1 level in adipose tissue vs palatable diet + vehicle ([2]; 10 mg/kg b.w.) | resistin levels in adipose tissue vs palatable diet + vehicle [2, 4]
CCC(=O)c1ccc(OCCCCCCN2CCN(c3ccncc3)CC2)cc1 [KSK-60] | 0.78 ± 0.1 | maintained leptin levels at the same level as rats in the control group fed standard feed | 4.98 | 109 | 1170 | 3.28 | 2.7 | 7.22e-05 | 272.63 | 272 | 5 | – | – | –
CCC(=O)c1ccc(OCCCCCCCCN2CCN(c3ccncc3)CC2)cc1 [KSK-74] | 23.2 ± 3.6 | reduced levels | 4.98 | 105 | 2180 | 2.45 | 2.71 | 6.94e-05 | 513.14 | 513 | 5 | reduced | decreased the level of MCP-1 | reduced levels

— paper PMC9266460, “KSK-74: Dual Histamine H3 and Sigma-2 Receptor Ligand with Anti-Obesity Potential” (International Journal of Molecular Sciences, 2022)
